Source: patent US20020086278A1, “CHROMOGENIC MEDIA CONTAINING BLOOD OR HEMIN” (priority 1999, published 2002)
Like-named read-outs stand apart in the source and are kept apart here.

What was measured:
[1] = test system: Escherichia coli 25922; assay: Example 1: growth and colony color on plates surface-spread with chromogen; type: cell-based; settings: E. coli 25922
[2] = test system: Streptococcus pneumoniae 6303; assay: as above; type: cell-based; settings: TSA II 5SB; S. pneu: 6303
[3] = test system: Group B Strep. 12386; assay: as above; type: cell-based; settings: for Growth: Group B Strep 12386
[4] = test system: N. gonorrhoeae 35201; assay: as above; type: cell-based; settings: Substrate on Choclate II Agar; N. gono. 35201
[5] = test system: Gardnerella vaginalis 14019; assay: as above; type: cell-based; settings: Summary of Table I; G. vaginalis 14014
[6] = test system: E. coli 25922; assay: Example 2: effect of incubation conditions on colony color formation; type: cell-based, Escherichia coli; settings: 0.004 g/plate
[7] = test system: Aeromonas hydrophilia (aehy); assay: Example 3: colony color on chromogenic TSA II with 5% sheep blood (chromogen in medium); type: cell-based; settings: for Colony Color: CO2, 21 h
[8] = test system: Branhamella catarrhalis (brca); assay: as above; type: cell-based; settings: for Colony Color: CO2, 21 h
[9] = test system: Candida albicans (caal); assay: as above; type: cell-based; settings: for Colony Color: caal 10231, 24 h
[10] = test system: Entercoccus faecalis (enfa); assay: as above; type: cell-based
[11] = test system: E. coli (non-O157) (esco); type: cell-based
[12] = test system: Klebsiella pneumoniae (klpn); assay: Example 3: colony color on chromogenic TSA II with 5% sheep blood (chromogen in medium); type: cell-based; settings: for Colony Color: CO2, 21 h
[13] = test system: Pseudomonas aeruginosa (psae); assay: as above; type: cell-based; settings: for Colony Color: CO2, 21 h
[14] = test system: Salmonella spp. (sasp); type: cell-based; settings: for Colony Color: CO2, 21 h
[15] = test system: Serratia marcescens (sema); assay: Example 3: colony color on chromogenic TSA II with 5% sheep blood (chromogen in medium); type: cell-based
[16] = test system: Streptococcus agalactiae (stag); assay: as above; type: cell-based
[17] = test system: Staphylococcus aureus (stau); assay: as above; type: cell-based
[18] = test system: Staphylococcus Coag Neg (step); assay: as above; type: cell-based; settings: 21 h
[19] = test system: S. milleri (stmi); assay: as above; type: cell-based; settings: for Colony Color: stmi 6249, 21 h
[20] = test system: S. pneumoniae (stpn); assay: as above; type: cell-based
[21] = test system: S pyogenes (stpy); assay: as above; type: cell-based; settings: for Colony Color: 21 h
[22] = test system: milu 9341; assay: as above; type: cell-based; settings: CO2, 21 h
[23] = chromogenic TSA II with 5% Sheep Blood, 0.1 g/l, 3 strains tested
[24] = chromogenic TSA II with 5% Sheep Blood, 0.1 g/l, 2 strains tested
[25] = chromogenic TSA II with 5% Sheep Blood, 0.1 g/l, 6 strains tested

OC[C@H]1O[C@@H](Oc2c[nH]c3ccc(Br)c(Cl)c23)[C@H](O)[C@@H](O)[C@H]1O [X-Gal, 5-Br-4-Cl-3-indolyl-β-D-galactopyranoside]
Color ([1]; Choc II): blue | Substrates Producing Color ([1]; Summary of Table I): X-Gal | Color ([1]; TSA II 5SB): blue | Color ([1]; TSA Plain): blue | Color [2]: light blue | Substrates Producing Growth Inhibition ([3]; Summary of Table I, Group B Strep. 12386): Slight inhib. w/ X- | Growth ([3]; TSA II 5SB): < | Growth ([3]; TSA Plain): < | Growth [4]: < | Substrates Producing Growth Inhibition [5]: X-Gal | Colony Color ([6]; Chocolate II Agar, 24 h, air): blue (d) | Colony Color ([6]; TSA II 5% Sheep Blood, 24 h, air): blue (d) | Colony Color ([6]; TSA II 5% Sheep Blood, 5 d, ANA): blue (d) | Colony Color ([6]; TSA II 5% Sheep Blood, 5 d, MA): blue (d) | Colony Color ([7]; aehy 7965): gb | Colony Color ([7]; aehy 7966): gb | Colony Color ([7]; aehy 49847): gb | Colony Color (Summary) [7, 23]: 0 | Colony Color ([8]; brca 25238): 0 | Colony Color ([8]; brca 25240): 0 | Colony Color (Summary) [8, 24]: 0 | Colony Color ([9]; CO2): 0 | Colony Color ([9]; air): 0 | Colony Color (Summary) [9, 24]: 0 | Colony Color ([10]; enfa 597, CO2, 21 h): 0 | Colony Color ([10]; enfa 597, air, 21 h): 0 | Colony Color ([10]; enfa 10741, CO2, 21 h): gb | Colony Color ([10]; enfa 10741, air, 21 h): lgb | Colony Color ([10]; enfa 12953, CO2, 21 h): 0 | Colony Color ([10]; enfa 12953, air, 21 h): 0 | Colony Color ([10]; enfa 14506, CO2, 21 h): lgb | Colony Color ([10]; enfa 14506, air, 21 h): 0 | Colony Color ([10]; enfa 29212, CO2, 21 h): gb | Colony Color ([10]; enfa 29212, CO2, 24 h): vlgb | Colony Color ([10]; enfa 29212, air, 21 h): gb | Colony Color ([10]; enfa 29212, air, 24 h): vlgb | Colony Color (Summary) [11, 23]: + | Colony Color ([11]; esco 33605, CO2, 21 h): gb | Colony Color (Summary) [12, 23]: + | Colony Color ([12]; klpn 13883): gb | Colony Color ([12]; klpn 33606): gb | Colony Color (Summary) [13, 23]: 0 | Colony Color ([13]; psae 9027): 0 | Colony Color ([13]; psae 15442): 0 | Colony Color ([13]; psae 33607): 0 | Colony Color (Summary) [14, 24]: 0 | Colony Color ([14]; saty 19430): 0 | Colony Color ([14]; satym 14028): 0 | Colony Color (Summary) ([15]; chromogenic TSA II with 5% Sheep Blood, 0.1 g/l, 1 strain tested): + | Colony Color ([15]; sema 13880, CO2, 21 h): gb | Colony Color (Summary) [16, 23]: 0 | Colony Color ([16]; stag 4768, CO2, 21 h): 0 | Colony Color ([16]; stag 4768, air, 21 h): 0 | Colony Color ([16]; stag 12386, CO2, 21 h): 0 | Colony Color ([16]; stag 12386, CO2, 24 h): 0 | Colony Color ([16]; stag 12386, air, 24 h): 0 | Colony Color (Summary) ([17]; chromogenic TSA II with 5% Sheep Blood, 0.1 g/l, 5 strains tested): 0 | Colony Color ([17]; stau 1006, CO2, 21 h): 0 | Colony Color ([17]; stau 1007, CO2, 21 h): 0 | Colony Color ([17]; stau 1008, CO2, 21 h): 0 | Colony Color ([17]; stau 1009, CO2, 21 h): 0 | Colony Color ([17]; stau 25923, CO2, 24 h): 0 | Colony Color ([17]; stau 25923, air, 24 h): 0 | Colony Color ([18]; step 12228, CO2): 0 | Colony Color ([18]; step 12228, air): 0 | Colony Color ([18]; step cdc1, CO2): 0 | Colony Color ([18]; step cdc1, air): 0 | Colony Color ([18]; step cdc2, CO2): 0 | Colony Color ([18]; step cdc2, air): 0 | Colony Color ([18]; step cdc4, CO2): 0 | Colony Color ([18]; step cdc4, air): 0 | Colony Color (Summary) [19, 24]: 0 | Colony Color ([19]; CO2): 0 | Colony Color ([19]; air): 0 | Colony Color (Summary) [20, 25]: 0 | Colony Color ([20]; stpn 1259, CO2, 21 h): 0 | Colony Color ([20]; stpn 1260, CO2, 21 h): 0 | Colony Color ([20]; stpn 1628, CO2, 21 h): 0 | Colony Color ([20]; stpn 6303, CO2, 24 h): 0 | Colony Color ([20]; stpn 6303, air, 24 h): 0 | Colony Color ([20]; stpn 6305, CO2, 24 h): 0 | Colony Color ([20]; stpn 6305, air, 24 h): 0 | Colony Color (Summary) [21, 25]: 0 | Colony Color ([21]; stpy 1027, CO2): 0 | Colony Color ([21]; stpy 1028, CO2): 0 | Colony Color ([21]; stpy 1029, CO2): 0 | Colony Color ([21]; stpy 1030, CO2): 0 | Colony Color ([21]; stpy 19615, CO2): 0 | Colony Color ([21]; stpy 19615, air): 0 | Colony Color ([21]; stpy 49117, CO2): 0 | Colony Color ([21]; stpy 49117, air): 0 | Colony Color ([21]; stpy 51339, CO2): 0 | Colony Color ([21]; stpy 51339, air): 0 | Colony Color [22]: 0
